In patent US7223583B2, “Antithrombotic thrombin variants” (Emory University, priority 2001, dated 2007):
Residues, ends and D or L forms follow the SMILES beside them. *: point of attachment. pNA = O=[N+]([O-])c1ccc(N*)cc1

How the values were obtained:
Assay type in all cases: biochemical
[1] = biological target: T1, human thrombin, wild-type (WT) (Homo sapiens, UniProt P00734); experiment: Hydrolysis of chromogenic substrates (release of p-NA at 405 nm), Example 3; conditions: 5 mM Tris, 0.1% PEG, 200 mM NaCl, pH 8.0, 25° C.
T1 construct: the B chain of thrombin commences with I1 and extends to E259; made in house
Procedure: Citrated plasma was diluted 1:1 with isotonic saline, and the thrombin analogs were diluted with 0.1 M NaCl, 0.01 M CaCl2, 0.02 M Tris, pH 7.3 prior to testing. 100 μl of thrombin analog was then added to 200 μl of baboon plasma and the clotting time was determined using a fibrometer.
(§1) The chromogenic substrates FPR and LDPR were synthesized by solid phase, purified by HPLC and analyzed by mass spectrometry. Progress curves of the release of p-NA following the hydrolysis of chromogenic substrate were measured at 405 nm as a function of substrate concentration and analyzed to extract the values of kcat/Km and kcat, after proper correction for product inhibition. […] Biotechnol.

[2] = biological target: T2, human thrombin, variant W215A, SEQ ID NO: 1 (Homo sapiens, UniProt P00734, W590A); experiment: as above; conditions: 5 mM Tris, 0.1% PEG, 200 mM NaCl, pH 8.0, 25° C.
T2 construct: The B chain commences with I1 and extends to E259; made in house; host or cells: baby hamster kidney cells
Procedure: Site-directed mutagenesis of human α-thrombin was carried out in a HPC4-pNUT expression vector as described in Arosio et al. Biochemistry 39: 8095-8101 (2000) and incorporated herein by reference in its entirety, using overlap extension PCR with two mutant oligonucleotides: upstream: 5-GGGCATCGTCTCAXXXGGTGAAGGCTG TG-3(SEQ ID NO: 7); downstream: 5-CACAGCCTTCACCXXXTGAGACGATGCCC-3 (SEQ ID NO: 8) and two flanking oligonucleotide primers, BgIII (upstream): 5-[…]-3 (SEQ ID NO: 9 and; EcoRI (downstream): 5-[…]-3 (SEQ ID NO: 10). For the generation of the double mutant variant W215A/E217A (WE) thrombin, the forward primer 5′-[…]-3′ (SEQ ID NO: 11) and the reverse primer 5′-[…]-3′ (SEQ ID NO: 12) were used. Expression of the variant thrombins was carried out in baby hamster kidney cells as described in Guinto et al. Proc. Natl. Acad. Sci. U.S.A. 96: 1852-1857 (1999) incorporated herein by reference in its entirety. The enzyme was activated with the prothrombinase complex for about 30 mins. at 37° C. and then purified to homogeneity by monoS FPLC using a linear gradient of 0.05 to 0.5 M NaCl in 5 mM MES (pH 6) at room temperature. Mutants were further checked for incomplete refolding or autolytic digestion by N-terminal amino acid sequencing. Electrospray mass spectrometry yielded molecular weights consistent with the mutations introduced and indicated identical glycosylation in wild-type and mutant constructs.
as §1, with “All assays were carried out under experimental conditions of 5 mM Tris, 0.1% PEG, 145 mM NaCl, pH 7.4 at 37° C., unless otherwise specified. The” for “The”, “Biotechnol. 15: 146-149 (1997) and incorporated herein by reference in its entirety.” for “Biotechnol.”

[3] = biological target: T1, human thrombin, wild-type (WT); experiment: Hydrolysis of chromogenic substrate (progress curves of the release of p-nitroaniline at 405 nm), Example 4; conditions: 5 mM Tris, 0.1% PEG, 145 mM NaCl, pH 7.4, 37° C.
Source text: WT, W215A and WE variant thrombins were expressed, purified, and characterized in detail as described by Cantwell & Di Cera. J. Biol. Chem. 275: 39827-39830 (2000), incorporated herein by reference in its entirety. WE was stored in aliquots frozen until used in the thrombosis or coagulation experiments. To confirm that injection of variant thrombin WE would be at least as safe as injection of WT in baboons, the procoagulant activities of the two thrombins were compared in baboon plasma prepared by pooling citrated plasma samples from five animals. Citrated plasma was diluted 1:1 with isotonic saline, and the thrombin analogs were diluted with 0.1 M NaCl, 0.01 M CaCl2, 0.02 M Tris, pH 7.3 prior to testing. 100 μl of thrombin analog was then added to 200 μl of baboon plasma and the clotting time was determined using a fibrometer. […]
(§2) All assays were carried out under experimental conditions of 5 mM Tris, 0.1% PEG, 145 mM NaCl, pH 7.4 at 37° C. […] The values of kcat/Km and kcat were obtained from the analysis of progress curves of the release of p-nitroaniline (measured at 405 nm) as a function of substrate concentration taking into account product inhibition, when present. […] The inhibition of thrombin by antithrombin III in the presence of heparin, and the activation of protein C in the presence or absence of rabbit thrombomodulin were carried out and analyzed as described in Dang et al. Nat. […]

[4] = biological target: T3, human thrombin, variant E217A (Homo sapiens, UniProt P00734, E592A); experiment: as above; conditions: E217A; 5 mM Tris, 0.1% PEG, 145 mM NaCl, pH 7.4, 37° C.
T3 construct: the B chain of thrombin commences with I1 and extends to E259
Procedure: (§3) All assays were carried out under experimental conditions of 5 mM Tris, 0.1% PEG, 145 mM NaCl, pH 7.4 at 37° C. The chromogenic substrates H-D-Phe-Pro-Arg-p-nitroanilide specific for thrombin and H-D-Asp-Arg-Arg-p-nitroanilide specific for activated protein C were purchased from Midwest Bio-Tech (Carmel, Ind.). The values of kcat/Km and kcat were obtained from the analysis of progress curves of the release of p-nitroaniline (measured at 405 nm) as a function of substrate concentration taking into account product inhibition, when present. The interaction of thrombin with fibrinogen and fibrin was studied in terms of the release of fibrinopeptides A and B as described by Vindigni & Di Cera. Biochemistry 35: 4417-4426 (1996) incorporated herein by reference in its entirety. The interaction of thrombin with PAR-1 was studied from the kinetics of cleavage of a soluble fragment corresponding to the extracellular portion of the receptor, as detailed in Arosio et al. Biochemistry 39: 8095-8101 (2000) incorporated herein by reference in its entirety. The inhibition of thrombin by antithrombin III in the presence of heparin, and the activation of protein C in the presence or absence of rabbit thrombomodulin were carried out and analyzed as described in Dang et al. Nat. Biotechnol. 15: 146-149 (1997).

[5] = tested on: human thrombin, variant E217A; experiment: as above; conditions: E217A thrombin mutant (Gibbs et al.)
Procedure: as §3

[6] = biological target: T4, human thrombin, variant W215A/E217A (WE), SEQ ID NO: 3 (Homo sapiens, UniProt P00734, E592A/W590A); experiment: as above; conditions: W215A/E217A (WE); 5 mM Tris, 0.1% PEG, 145 mM NaCl, pH 7.4, 37° C.
T4 construct: The B chain commences with I1 and extends to E259; made in house; host or cells: baby hamster kidney cells
Procedure: (§4) Site-directed mutagenesis of human α-thrombin was carried out in a HPC4-pNUT expression vector as described in Arosio et al. Biochemistry 39: 8095-8101 (2000) and incorporated herein by reference in its entirety, using overlap extension PCR with two mutant oligonucleotides: upstream: 5-GGGCATCGTCTCAXXXGGTGAAGGCTG TG-3(SEQ ID NO: 7); downstream: 5-CACAGCCTTCACCXXXTGAGACGATGCCC-3 (SEQ ID NO: 8) and two flanking oligonucleotide primers, BgIII (upstream): 5-[…]-3 (SEQ ID NO: 9 and; EcoRI (downstream): 5-[…]-3 (SEQ ID NO: 10). For the generation of the double mutant variant W215A/E217A (WE) thrombin, the forward primer 5′-[…]-3′ (SEQ ID NO: 11) and the reverse primer 5′-[…]-3′ (SEQ ID NO: 12) were used. […]
as §2

[7] = tested on: human thrombin, variant W215A/E217A (WE), SEQ ID NO: 3; experiment: as above; conditions: W215A/E217A (WE) thrombin double mutant
Procedure: as §4, §2

[8] = kcat could not be estimated due to the very high Km

Row | SMILES | kcat/Km (LDPR) [1, 8] | kcat/Km (LDPR) [2, 8] | kcat (FPR) [1] | kcat/Km (FPR) [1] | kcat (FPR) [2] | kcat/Km (FPR) [2] | kcat/Km (H-D-Phe-Pro-Arg-p-nitroanilide) [3] | kcat/Km (H-D-Phe-Pro-Arg-p-nitroanilide) [4] | drop of kcat/Km for the hydrolysis of H-D-Phe-Pro-Arg-p-nitroanilide [5] | kcat/Km (H-D-Phe-Pro-Arg-p-nitroanilide) [6] | cleavage of H-D-Phe-Pro-Arg-p-nitroanilide compromised [7]
1 | CC(C)C[C@H](N)C(=O)N[C@@H](CC(=O)O)C(=O)N1CCC[C@H]1C(=O)N[C@@H](CCCN=C(N)N)C(=O)Nc1ccc([N+](=O)[O-])cc1 [LDPR, H-L-Leu-Asp-Pro-Arg-p-nitroanilide] (H-LDPR-pNA) | 4.7e+06 ± 900000 M⁻¹ s⁻¹ | 25000 ± 1000 M⁻¹ s⁻¹ | – | – | – | – | – | – | – | – | –
2 | NC(N)=NCCC[C@H](NC(=O)[C@@H]1CCCN1C(=O)[C@H](N)Cc1ccccc1)C(=O)Nc1ccc([N+](=O)[O-])cc1 [FPR, H-D-Phe-Pro-Arg-p-nitroanilide] | – | – | 56 ± 3 s⁻¹ | 8.8e+07 ± 4e+06 M⁻¹ s⁻¹ | 43 ± 2 s⁻¹ | 910000 ± 10000 M⁻¹ s⁻¹ | 9.7e+07 ± 5e+06 M⁻¹ s⁻¹ | 3.8e+06 ± 300000 M⁻¹ s⁻¹ | over 25 fold | 2800 ± 100 M⁻¹ s⁻¹ | over 30,000 fold
